Measurements reported in the NIST ThermoML archive (doi:10.1016/j.jct.2006.07.025).

Experiment: xn = mol fraction of the nth substance listed
Conditions: for surface tension liquid-gas: Pendant drop shape; for mass density: 101 kPa, Liquid, Vibrating tube method

Cc1cc(C)cc(C)c1 [1,3,5-trimethylbenzene] + CCCCOC(C)=O
Conditions	mass density [kg/m3]	surface tension liquid-gas [mN/m]
298.15 K, x2 = 0	861.04	28.09
298.15 K, x2 = 0.0736	861.9	–
298.15 K, x2 = 0.1009	862.23	27.72
298.15 K, x2 = 0.1521	862.84	–
298.15 K, x2 = 0.2018	863.45	27.34
298.15 K, x2 = 0.2523	864.09	–
298.15 K, x2 = 0.3003	864.7	26.98
298.15 K, x2 = 0.3499	865.36	–
298.15 K, x2 = 0.4005	866.03	26.61
298.15 K, x2 = 0.45	866.72	–
298.15 K, x2 = 0.4996	867.44	26.27
298.15 K, x2 = 0.5446	868.11	–
298.15 K, x2 = 0.5979	868.92	25.93
298.15 K, x2 = 0.6503	869.76	–
298.15 K, x2 = 0.7016	870.59	25.62
298.15 K, x2 = 0.7504	871.44	–
298.15 K, x2 = 0.8005	872.32	25.36
298.15 K, x2 = 0.846	873.17	–
298.15 K, x2 = 0.8981	874.13	25.12
298.15 K, x2 = 0.9333	874.87	–
303.15 K, x2 = 0	856.96	27.67
303.15 K, x2 = 0.1005	858.04	27.29
303.15 K, x2 = 0.1997	859.17	26.9
303.15 K, x2 = 0.3	860.37	26.53
303.15 K, x2 = 0.3996	861.61	26.14
303.15 K, x2 = 0.5007	862.98	25.79
303.15 K, x2 = 0.6007	864.4	25.45
303.15 K, x2 = 0.7001	865.94	25.12
303.15 K, x2 = 0.7971	867.56	24.85
303.15 K, x2 = 0.9009	869.4	24.6
308.15 K, x2 = 0	852.84	27.24
308.15 K, x2 = 0.1002	853.8	26.84
308.15 K, x2 = 0.1986	854.82	26.44
308.15 K, x2 = 0.2997	855.94	26.05
308.15 K, x2 = 0.4003	857.12	25.66
308.15 K, x2 = 0.5007	858.39	25.29
308.15 K, x2 = 0.5997	859.71	24.94
308.15 K, x2 = 0.7005	861.18	24.6
308.15 K, x2 = 0.8	862.75	24.32
308.15 K, x2 = 0.9006	864.44	24.07
313.15 K, x2 = 0	848.74	26.82
313.15 K, x2 = 0.0498	849.12	–
313.15 K, x2 = 0.0997	849.59	26.39
313.15 K, x2 = 0.15	850.08	–
313.15 K, x2 = 0.2012	850.6	25.97
313.15 K, x2 = 0.2502	851.13	–
313.15 K, x2 = 0.2996	851.64	25.57
313.15 K, x2 = 0.3507	852.22	–
313.15 K, x2 = 0.3987	852.78	25.16
313.15 K, x2 = 0.4497	853.39	–
313.15 K, x2 = 0.5008	854	24.79
313.15 K, x2 = 0.5499	854.62	–
313.15 K, x2 = 0.5964	855.24	24.42
313.15 K, x2 = 0.6503	855.99	–
313.15 K, x2 = 0.6995	856.68	24.07
313.15 K, x2 = 0.7499	857.4	–
313.15 K, x2 = 0.7994	858.19	23.79
313.15 K, x2 = 0.8499	858.99	–
313.15 K, x2 = 0.9	859.83	23.54
313.15 K, x2 = 0.9495	860.67	–

Cc1cc(C)cc(C)c1 [1,3,5-trimethylbenzene] + CCCOC(C)=O
Conditions	mass density [kg/m3]	surface tension liquid-gas [mN/m]
298.15 K, x2 = 0	861.04	28.09
298.15 K, x2 = 0.0498	861.7	–
298.15 K, x2 = 0.0996	862.38	27.63
298.15 K, x2 = 0.1504	863.1	–
298.15 K, x2 = 0.2006	863.85	27.16
298.15 K, x2 = 0.2502	864.63	–
298.15 K, x2 = 0.3006	865.46	26.7
298.15 K, x2 = 0.3499	866.32	–
298.15 K, x2 = 0.4003	867.23	26.27
298.15 K, x2 = 0.4498	868.17	–
298.15 K, x2 = 0.4985	869.14	25.85
298.15 K, x2 = 0.5526	870.28	–
298.15 K, x2 = 0.6001	871.33	25.46
298.15 K, x2 = 0.65	872.49	–
298.15 K, x2 = 0.6987	873.7	25.09
298.15 K, x2 = 0.7369	874.66	–
298.15 K, x2 = 0.7983	876.31	24.73
298.15 K, x2 = 0.8504	877.83	–
298.15 K, x2 = 0.8995	879.31	24.35
298.15 K, x2 = 0.9397	880.63	–
303.15 K, x2 = 0	856.96	27.67
303.15 K, x2 = 0.1	857.96	27.18
303.15 K, x2 = 0.2012	859.34	26.69
303.15 K, x2 = 0.2995	860.81	26.2
303.15 K, x2 = 0.3998	862.5	25.74
303.15 K, x2 = 0.4996	864.32	25.3
303.15 K, x2 = 0.6004	866.41	24.9
303.15 K, x2 = 0.7007	868.63	24.5
303.15 K, x2 = 0.7987	871.2	24.12
303.15 K, x2 = 0.9009	874.11	23.73
308.15 K, x2 = 0	852.84	27.24
308.15 K, x2 = 0.0985	853.66	26.73
308.15 K, x2 = 0.1992	854.81	26.2
308.15 K, x2 = 0.3018	856.13	25.69
308.15 K, x2 = 0.3991	857.53	25.21
308.15 K, x2 = 0.5009	859.15	24.75
308.15 K, x2 = 0.6012	861.08	24.33
308.15 K, x2 = 0.6997	863.19	23.91
308.15 K, x2 = 0.7983	865.52	23.52
308.15 K, x2 = 0.8997	868.19	23.11
313.15 K, x2 = 0	848.74	26.82
313.15 K, x2 = 0.0503	848.97	–
313.15 K, x2 = 0.1004	849.28	26.28
313.15 K, x2 = 0.1501	849.65	–
313.15 K, x2 = 0.1999	850.05	25.73
313.15 K, x2 = 0.2499	850.49	–
313.15 K, x2 = 0.3004	851.02	25.19
313.15 K, x2 = 0.3502	851.58	–
313.15 K, x2 = 0.3998	852.18	24.69
313.15 K, x2 = 0.449	852.83	–
313.15 K, x2 = 0.5001	853.57	24.21
313.15 K, x2 = 0.5502	854.4	–
313.15 K, x2 = 0.6	855.29	23.76
313.15 K, x2 = 0.6503	856.26	–
313.15 K, x2 = 0.7005	857.33	23.33
313.15 K, x2 = 0.7499	858.44	–
313.15 K, x2 = 0.8003	859.87	22.92
313.15 K, x2 = 0.8499	861.27	–
313.15 K, x2 = 0.9003	862.85	22.5
313.15 K, x2 = 0.9504	864.3	–
